# Source: patent US20070197453A1, “Compositions and methods for treatment of disorders of protein aggregation” (priority 2006, published 2007)
# “Also recorded” adds a separate entry of the source. Marks after values point to notes of the source that are not given here.
# How the values were obtained:
# [1] = system: TgCRND8 mice; assay: Morris Water Maze spatial reference memory test; type: in vivo, mouse
# Method: (§1) Behavioural tests: Morris Water Maze testing was performed as previously described. After non-spatial pre-training, mice underwent place discrimination training for 5 days with 4-trials per day, followed by a cued visible platform to rule out general motivational, learning deficits and motor problems, and a probe trial to evaluate memory. […] Open field test for motor activity was preformed as described previously. Duration of walking, pausing and grooming were analyzed as indices of spontaneous locomotor activity. Sensorimotor function was examined with an Economex™ accelerating rotarod (Columbus Instruments, Columbus, Ohio), as described elsewhere. The rod was set to accelerate at a rate of 0.2 r.p.m./s, from an initial, constant speed of 5 r.p.m. Latency to fall was recorded in four daily trials, conducted at 30 min intervals. All mice were trained for seven days before testing. The test day performance score for each animal was obtained by summing its latency to fall over the four trials
# Behavioural tests: Behavioural analyses were performed using the Morris Water Maze test (13, 14). After pre-spatial training, mice underwent place discrimination training for 5 days with 4 trials per day, followed by a cued visible platform to rule out general motivational, learning deficits and motor problems. […] Open field test for motor activity was performed as described previously. Duration of walking, pausing, rearing and grooming were analyzed as indices of spontaneous locomotor activity.
# [2] = molecular target: T1, Aβ40 (Homo sapiens, UniProt P05067); assay: Cerebral Aβ content: brain Aβ40 (ELISA kit); type: in vivo, mouse; conditions: TgCRND8 mice with pre-existing disease; 28 day treatment from 5 months of age
# T1 construct: from tissue; host or cells: hemi-brain homogenate of TgCRND8 transgenic mice
# Method: (§2) Plasma and Cerebral Aβ Content. Hemi-brain samples were homogenized in a buffered sucrose solution, followed by either 0.4% diethylamine/100 mM NaCl for soluble Aβ levels or cold formic acid for the isolation of total Aβ. After neutralization, the samples were diluted and analyzed for Aβ40 and Aβ42 using commercially available kits (BIOSOURCE International). Each hemisphere was analyzed in triplicate and the mean values±SEM reported. Western blot analyses were performed on all fractions using urea gels for Aβ species analyses. Aβ was detected using 6E10 (BIOSOURCE International) and Enhanced Chemiluminenscence (Amersham).
# (§3) Cerebral Aβ Content. Hemi-brain samples were homogenized in a buffered sucrose solution, followed by either 0.4% diethylamine/100 mM NaCl for soluble Aβ levels or cold formic acid for the isolation of total Aβ [22]. After neutralization the samples were diluted and analyzed for Aβ40 and Aβ42 using commercially available kits (BIOSOURCE International). Each hemisphere was analyzed in triplicate with the mean±SEM reported. Plasma was diluted and run directly on the ELISA.
# [3] = system: TgCRND8 mice; assay: Cerebral amyloid plaque burden (anti-Aβ immunostaining, image analysis); type: in vivo, mouse
# Method: (§4) Cerebral amyloid burden. Brains were removed and one hemisphere was fixed in 4% paraformaldehyde and embedded in paraffin wax in the mid sagittal plane. To generate sets of systematic uniform random sections, 5 μm serial sections were collected across the entire hemisphere. Sets of sections at 50 μm intervals were used for analyses (10-14 sections/set). Plaques were identified after antigen retrieval with formic acid, and incubation with primary anti-Aβ antibody (Dako M-0872), followed by secondary antibody (Dako StreptABCcomplex/horseradish kit). End products were visualized with DAB and were counter-stained with luxol fast blue. Amyloid plaque burden was assessed with Leco IA-3001 image analysis software interfaced with Leica microscope and Hitachi KP-M1U CCD video camera. Openlab imaging software (Improvision, Lexington, Mass.) was then used to convert micrographs to binary images for plaque number and plaque area determinations. Vascular amyloid burden was defined as amyloid originating from or surrounding blood vessels and was analysed similarly.
# [4] = system: TgCRND8 mice; assay: Vascular amyloid burden; type: in vivo, mouse; conditions: compared to untreated and epi-inositol treated
# Method: as §4
# [5] = system: LTP in mouse hippocampal slices; assay: Long term potentiation in hippocampal slices with 7PA2 conditioned medium; type: cell-based; conditions: compound treated culture media from plain CHO cells
# Method: Long Term Potentiation. […] Swiss Webster mice between the ages of P16 and P26 were anesthetized with isoflurane. […] The hippocampus from each hemisphere was isolated and 350 μm coronal sections were made. […] Once placed in the chamber, slices were continuously perfused by a closed loop containing 15 ml of ACSF to conserve the oligomeric Aβ. […] A bipolar stimulating electrode (World Precision Inst.) was placed in the Schaffer collaterals to deliver baseline stimuli and tetani. A borosilicate glass recording electrode (2-4 MΩ) containing ACSF was positioned approximately 75-200 μm from the stimulating electrode. […] Test stimuli were delivered at 0.05 Hz. To induce LTP, 4 tetani (100 Hz for 1 second) were delivered 5 minutes apart. Field potential responses were amplified 10× using an Axopatch 200B. The data was sampled at 10 kHz and filtered at 2 kHz. Traces were analyzed using pClamp 9.2. The slope of the field potential was estimated using approximately 10-60% of the total response.
# [6] = system: TgTauP301L mice; assay: Synaptophysin reactivity in TgTauP301L mice; type: in vivo, mouse; conditions: TgTauP301L mice after treatment
# Method: Synaptophysin immunohistochemical staining was performed on 3 evenly spaced saggital sections of paraformaldehyde-fixed treated and control mice. Sections were immunolabelled for synaptophysin with anti-synaptophysin IgG (1:40; Roche, Laval, PQ). Digital images were captured and analyzed as described above. Within each section, three randomly chosen 100 μm^2 areas of the CA1 region of the hippocampus were counted for synaptophysin reactive cell bodies and boutons. The results are expressed as the mean of the number of reactive bodies and boutons per 100 μm^2 [29, 30].
# [7] = system: TgCRND8 mice; assay: Gliosis quantitation (GFAP astrocytes, CD68 microglia); type: in vivo, mouse
# Method: Gliosis Quantitation. Five randomly selected, evenly spaced, sagittal sections were collected from paraformaldehyde-fixed and frozen hemispheres of treated and control mice. Sections were immunolabelled for astrocytes with anti-rat GFAP IgG2a (Dako; diluted 1:50) and for microglia with anti-rat CD68 IgG2b (Dako; 1:50). Digital images were captured using a Coolsnap digital camera (Photometrics, Tuscon, Ariz.) mounted to a Zeiss, Axioscope 2 Plus microscope. Images were analysed using Openlab 3.08 imaging software (Improvision, Lexington Mass.).
# [8] = system: TgCRND8 mice; assay: Survival census (Kaplan-Meier); type: in vivo, mouse; conditions: compared to untreated TgCRND8 mice
# Method: (§5) Survival Census: The probability of survival was assessed by the Kaplan-Meier technique, computing the probability of survival at every occurrence of death, thus making it suitable for small sample sizes. For the analyses of survival, 35 mice were used for each treatment group. The Tarone-Ware test was used to assess effects of treatments.
# as §5, with “technique” for “technique,”, “30” for “35”
# [9] = system: TgCRND8 mice; assay: Accelerating rotarod sensorimotor function; type: in vivo, mouse; conditions: treated versus untreated TgCRND8 mice
# Method: as §1
# [10] = molecular target: T2, Aβ42 (Homo sapiens, UniProt P05067); assay: Plasma Aβ42 levels; type: in vivo, mouse; parameters: from tissue; host or cells: plasma of TgCRND8 transgenic mice; conditions: TgCRND8 mice following 28 days of therapy at five months of age
# Method: as §2, §3
# Target sequence in this assay (P05067 672-713): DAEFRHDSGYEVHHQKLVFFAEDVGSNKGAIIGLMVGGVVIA
# [11] = molecular target: T2, Aβ42; assay: Cerebral Aβ content: brain Aβ42 (ELISA kit); type: in vivo, mouse; parameters: from tissue; host or cells: hemi-brain homogenate of TgCRND8 transgenic mice; conditions: TgCRND8 mice with pre-existing disease; 28 day treatment from 5 months of age
# Method: as §2, §3
# Target sequence in this assay (P05067 672-713 limits assumed): as the sequence (P05067 672-713) above
# [12] = six month old TgCRND8 mice, 28 days of oral treatment beginning at five months of age
# [13] = TgCRND8 mice, 4-month Prophylactic (oral from 6 weeks to 4 months of age)
# [14] = TgCRND8 mice, 6-month Prophylactic (oral from 6 weeks to 6 months of age)
# [15] = TgCRND8 mice, 28 day course at 5 months of age, vs untreated
# [16] = TgCRND8 mice, oral treatment for 28 days (1 month) from 5 months of age, analysed at 6 months
# T1 sequence (P05067 672-711): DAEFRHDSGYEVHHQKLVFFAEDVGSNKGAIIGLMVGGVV
structure (smiles),measurement,setting,value
"O[C@H]1[C@H](O)[C@@H](O)[C@H](O)[C@@H](O)[C@@H]1O [scyllo-cyclohexanehexol, 1,3,5/2,4,6-(scyllo-)cyclohexanehexol]",effects on cognition and pathology,"[1]; TgCRND8 mice, administered for 2 months, ending at 7 months of age",Sustained effects both on cognition and pathology were observed
same,Non-Tg littermate behaviour under treatment,"[1]; mouse, in vivo",not affected
same,cognition compared to non-Tg mice,"[1]; prophylactic treatment, four months of age",approached that of non-Tg mice
same,"probe trial, % time in target quadrant","[1]; separate cohort of TgCRND8 mice, compared to non-Tg littermates, data not shown",not statistically different from non-Tg littermates
same,spatial reference memory performance compared to non-Tg littermates,[1]; [12],indistinguishable from that of their non-Tg littermates
same,spatial reference memory performance compared to untreated TgCRND8 littermates,[1]; [12],significantly better behavioural performance compared to untreated TgCRND8 mice; also recorded: significantly better than untreated TgCRND8 littermates
same,effect on brain Aβ40 levels,[2],reduced brain levels of Aβ40 and Aβ42
same,"amyloid (plaque) burden, immunostaining","[3]; TgCRND8 mice at six months of age, hippocampus and cerebral cortex",significantly decreased amyloid burden and gliosis
same,"plaque burden (percent area of the brain covered with plaques, plaque number)","[3]; TgCRND8 mice with pre-existing disease, one month treatment from 5 months of age",lower plaque burden
same,Mean Plaque Size,[3]; [13],103 ± 4* μm^2
same,Total Plaque Area,[3]; [13],63847 ± 2895 μm^2
same,Mean Plaque Size,[3]; [14],339 ± 10† μm^2
same,Total Plaque Area,[3]; [14],262379 ± 5373† μm^2
same,percent area of the brain covered by plaques reduction,[3]; [15],14±0.5%
same,plaque number reduction,[3]; [15],13±0.3%
same,plaque size reduction,[3]; [15],16±0.4%
same,Mean Plaque Size,[3]; [16],336 ± 6* μm^2
same,Total Plaque Area,[3]; [16],420027 ± 14986* μm^2
same,total vascular Aβ load,[4],significantly decreased the total vascular load
same,direct effect on LTP,[5],no direct effect on LTP
same,synaptophysin reactivity,[6],unchanged
same,percent brain area covered with microgliosis,[7]; TgCRND8 mice,decreased the percent brain area covered with microgliosis
same,"astrogliosis / gliosis, anti-GFAP immunostaining",[7]; TgCRND8 mice at six months of age,significantly decreased amyloid burden and gliosis
same,percent brain area covered in astrogliosis,"[7]; TgCRND8 mice, 4- and 6-months of age",decreased the astrogliotic response to a greater extent at both ages
same,Kaplan Meier cumulative survival,[8],increased survival
same,Rotarod sensorimotor function,[9],no difference
same,Plasma Aβ42 levels,[10],990 ± 73 pg/mL
same,effect on brain Aβ42 levels,[11],reduced brain levels of Aβ40 and Aβ42
